Data as given in patent US20260055103A1, “2,3,4,9-TETRAHYDRO-1H-PYRIDO[3,4-B]INDOLE DERIVATIVES AS ESTROGEN RECEPTOR MODULATORS FOR THE TREATMENT OF CANCER” (Olema Pharmaceuticals, Inc., priority 2022, published 2026).

Molecular target: T1, estrogen receptor (Homo sapiens, UniProt P03372)
T1 construct: endogenous in cells; host or cells: ECC-1 cells
T1 sequence (P03372 1-595): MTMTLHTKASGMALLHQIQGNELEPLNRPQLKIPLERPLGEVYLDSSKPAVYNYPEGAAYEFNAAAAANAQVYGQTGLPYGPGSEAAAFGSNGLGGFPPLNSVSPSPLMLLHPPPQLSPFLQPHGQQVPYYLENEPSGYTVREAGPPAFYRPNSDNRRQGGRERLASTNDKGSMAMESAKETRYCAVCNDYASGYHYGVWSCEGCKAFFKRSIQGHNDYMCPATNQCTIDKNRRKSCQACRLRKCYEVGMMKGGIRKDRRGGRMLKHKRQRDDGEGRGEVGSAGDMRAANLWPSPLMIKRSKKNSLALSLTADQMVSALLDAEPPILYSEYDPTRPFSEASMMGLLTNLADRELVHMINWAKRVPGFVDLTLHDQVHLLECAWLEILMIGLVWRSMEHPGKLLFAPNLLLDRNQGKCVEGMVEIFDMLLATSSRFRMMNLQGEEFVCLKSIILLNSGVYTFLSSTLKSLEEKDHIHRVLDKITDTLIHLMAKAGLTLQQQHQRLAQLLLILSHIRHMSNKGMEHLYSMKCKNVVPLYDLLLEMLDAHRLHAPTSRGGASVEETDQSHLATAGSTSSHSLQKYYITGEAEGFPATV
Experiment: Alkaline phosphatase (AP) assay in ECC-1 cells, agonist mode (no E2) and antagonist mode (500 pM E2)
Type: cell-based
Details: 3 days, AP activity normalized to 500 pM E2 alone, agonist mode without E2, antagonist mode with 500 pM E2
How it was run: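 ECC-1 cells in hormone-depleted medium treated 3 days with compound alone (agonist mode) or with 500 pM E2 (antagonist mode). Alkaline phosphatase read by p-nitrophenyl phosphate hydrolysis, 40 min at 42° C, A405. Activity normalized to 500 pM E2 alone.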

C[C@@H]1Cc2c([nH]c3ccccc23)[C@@H](c2cnc(C[C@@H]3CCN(CCCF)C3)s2)N1CC(F)(F)CO [Example I-42]
Activity (estrogen receptor modulation, agonism and antagonism): ++ (estrogen receptor antagonism having (i) between 10% and 80% increase in the E2-normalized signal in the AP assay (agonist mode) and (ii) between 10% and 80% reduction in the E2-normalized signal in the AP assay (antagonist mode))

C[C@@H]1Cc2c([nH]c3ccccc23)[C@@H](c2cnc(N[C@@H]3CCCN(CCCF)C3)s2)N1CC(F)(F)CO [Example I-67, 2,2-difluoro-3-((1S,3R)-1-(2-(((R)-1-(3-fluoropropyl)piperidin-3-yl)amino)thiazol-5-yl)-3-methyl-1,3,4,9-tetrahydro-2H-pyrido[3,4-b]indol-2-yl)propan-1-ol]
Activity (estrogen receptor modulation, agonism and antagonism): + (estrogen receptor agonism having (i) at least 80% increase in the E2-normalized signal in the AP assay (agonist mode) and (ii) no more than 80% reduction in the E2-normalized signal in the AP assay (antagonist mode))

C[C@@H]1Cc2c([nH]c3ccccc23)[C@@H](c2ncc(CC3CN(CCC(F)F)C3)s2)N1CC(F)(F)F [Example I-39, 5-[[1-(3,3-difluoropropyl)azetidin-3-yl]methyl]-2-[(1S,3R)-3-methyl-2-(2,2,2-trifluoroethyl)-1,3,4,9-tetrahydropyrido[3,4-b]indol-1-yl]thiazole]
Activity (estrogen receptor modulation, agonism and antagonism): ++ (estrogen receptor antagonism having (i) between 10% and 80% increase in the E2-normalized signal in the AP assay (agonist mode) and (ii) between 10% and 80% reduction in the E2-normalized signal in the AP assay (antagonist mode))

C[C@@H]1Cc2c([nH]c3ccccc23)[C@@H](c2ncc(CC3CN(CCCF)C3)s2)N1CC(F)(F)CO [Example I-44, 2,2-difluoro-3-[(1S,3R)-1-[5-[[1-(3-fluoropropyl)azetidin-3-yl]methyl]thiazol-2-yl]-3-methyl-1,3,4,9-tetrahydropyrido[3,4-b]indol-2-yl]propan-1-ol]
Activity (estrogen receptor modulation, agonism and antagonism): ++ (estrogen receptor antagonism having (i) between 10% and 80% increase in the E2-normalized signal in the AP assay (agonist mode) and (ii) between 10% and 80% reduction in the E2-normalized signal in the AP assay (antagonist mode))

CCCN1CC(Cc2cnc([C@@H]3c4[nH]c5ccccc5c4C[C@@H](C)N3CC(F)F)s2)C1 [Example I-32, 2-[(1S,3R)-2-(2,2-difluoroethyl)-3-methyl-1,3,4,9-tetrahydropyrido[3,4-b]indol-1-yl]-5-[(1-propylazetidin-3-yl)methyl]thiazole]
Activity (estrogen receptor modulation, agonism and antagonism): ++ (estrogen receptor antagonism having (i) between 10% and 80% increase in the E2-normalized signal in the AP assay (agonist mode) and (ii) between 10% and 80% reduction in the E2-normalized signal in the AP assay (antagonist mode))

C[C@@H]1Cc2c([nH]c3ccccc23)[C@@H](c2cnc(C[C@@H]3CCN(CCCF)C3)s2)N1CC(F)(F)F [Example I-48, 2-[[(3S)-1-(3-fluoropropyl)pyrrolidin-3-yl]methyl]-5-[(1S,3R)-3-methyl-2-(2,2,2-trifluoroethyl)-1,3,4,9-tetrahydropyrido[3,4-b]indol-1-yl]thiazole]
Activity (estrogen receptor modulation, agonism and antagonism): ++ (estrogen receptor antagonism having (i) between 10% and 80% increase in the E2-normalized signal in the AP assay (agonist mode) and (ii) between 10% and 80% reduction in the E2-normalized signal in the AP assay (antagonist mode))

CCCN1CC(Cc2cc(F)c([C@@H]3c4[nH]c5ccccc5c4C[C@@H](C)N3CC(C)(C)F)s2)C1 [Example I-11, 3-({4-fluoro-5-[(1S,3R)-2-(2-fluoro-2-methylpropyl)-3-methyl-1H,2H,3H,4H,9H-pyrido[3,4-b]indol-1-yl]thiophen-2-yl}methyl)-1-propylazetidine]
Activity (estrogen receptor modulation, agonism and antagonism): ++ (estrogen receptor antagonism having (i) between 10% and 80% increase in the E2-normalized signal in the AP assay (agonist mode) and (ii) between 10% and 80% reduction in the E2-normalized signal in the AP assay (antagonist mode))

CCCN1CC[C@@H](Cc2ncc([C@@H]3c4[nH]c5ccccc5c4C[C@@H](C)N3CC(F)F)s2)C1 [Example I-45, 5-[(1S,3R)-2-(2,2-difluoroethyl)-3-methyl-1,3,4,9-tetrahydropyrido[3,4-b]indol-1-yl]-2-[[(3S)-1-propylpyrrolidin-3-yl]methyl]thiazole]
Activity (estrogen receptor modulation, agonism and antagonism): + (estrogen receptor agonism having (i) at least 80% increase in the E2-normalized signal in the AP assay (agonist mode) and (ii) no more than 80% reduction in the E2-normalized signal in the AP assay (antagonist mode))

C[C@@H]1Cc2c([nH]c3ccccc23)[C@@H](c2cnc(N[C@@H]3CN(CCCF)C[C@@H]3F)s2)N1CC(F)(F)CO [Example I-72, 2,2-difluoro-3-[(1S,3R)-1-[2-[[(3R,4S)-4-fluoro-1-(3-fluoropropyl)pyrrolidin-3-yl]amino]thiazol-5-yl]-3-methyl-1,3,4,9-tetrahydropyrido[3,4-b]indol-2-yl]propan-1-ol]
Activity (estrogen receptor modulation, agonism and antagonism): ++ (estrogen receptor antagonism having (i) between 10% and 80% increase in the E2-normalized signal in the AP assay (agonist mode) and (ii) between 10% and 80% reduction in the E2-normalized signal in the AP assay (antagonist mode))

C[C@@H]1CCN(CCCc2ccc([C@@H]3c4[nH]c5ccccc5c4C[C@@H](C)N3CC(C)(C)F)s2)C1 [Example I-26, (3R)-1-(3-{5-[(1S,3R)-2-(2-fluoro-2-methylpropyl)-3-methyl-1H,2H,3H,4H,9H-pyrido[3,4-b]indol-1-yl]thiophen-2-yl}propyl)-3-methylpyrrolidine]
Activity (estrogen receptor modulation, agonism and antagonism): ++ (estrogen receptor antagonism having (i) between 10% and 80% increase in the E2-normalized signal in the AP assay (agonist mode) and (ii) between 10% and 80% reduction in the E2-normalized signal in the AP assay (antagonist mode))

C[C@@H]1Cc2c([nH]c3ccccc23)[C@@H](c2ccc(C3CCN(CCCF)CC3)s2)N1CC(C)(C)F [Example I-71, (1S,3R)-2-(2-fluoro-2-methyl-propyl)-1-[5-[1-(3-fluoropropyl)-4-piperidyl]-2-thienyl]-3-methyl-1,3,4,9-tetrahydropyrido[3,4-b]indole]
Activity (estrogen receptor modulation, agonism and antagonism): + (estrogen receptor agonism having (i) at least 80% increase in the E2-normalized signal in the AP assay (agonist mode) and (ii) no more than 80% reduction in the E2-normalized signal in the AP assay (antagonist mode))

C[C@@H]1Cc2c([nH]c3ccccc23)[C@@H](c2ccc(CC3CN(CCCF)C3)s2)N1CC(F)F [Example I-17, 3-({5-[(1S,3R)-2-(2,2-difluoroethyl)-3-methyl-1H,2H,3H,4H,9H-pyrido[3,4-b]indol-1-yl]thiophen-2-yl}methyl)-1-(3-fluoropropyl)azetidine]
Activity (estrogen receptor modulation, agonism and antagonism): +++ (estrogen receptor antagonism (i) with pIC50 greater than 7.5 and at least a 10% reduction in the E2-normalized signal in the AP assay (antagonist mode); and no more than 10% increase in E2-normalized signal in the AP assay (agonist mode))

C[C@@H]1Cc2c([nH]c3ccccc23)[C@@H](c2cnc(C[C@@H]3CCN(CCCF)C3)s2)N1CC(C)(C)F [Example I-43]
Activity (estrogen receptor modulation, agonism and antagonism): ++ (estrogen receptor antagonism having (i) between 10% and 80% increase in the E2-normalized signal in the AP assay (agonist mode) and (ii) between 10% and 80% reduction in the E2-normalized signal in the AP assay (antagonist mode))

C[C@@H]1Cc2c([nH]c3ccccc23)[C@@H](c2cnc(CC3CN(CCCF)C3)s2)N1CC(F)(F)CO [Example I-40, 2,2-difluoro-3-[(1S,3R)-1-[2-[[1-(3-fluoropropyl)azetidin-3-yl]methyl]thiazol-5-yl]-3-methyl-1,3,4,9-tetrahydropyrido[3,4-b]indol-2-yl]propan-1-ol]
Activity (estrogen receptor modulation, agonism and antagonism): +++ (estrogen receptor antagonism (i) with pIC50 greater than 7.5 and at least a 10% reduction in the E2-normalized signal in the AP assay (antagonist mode); and no more than 10% increase in E2-normalized signal in the AP assay (agonist mode))
